Legend:
Format in all cases: in vivo
EPHHL [1] = experiment: Pre-emergence biological efficacy; details: Euphorbia heterophylla, 312 h, evaluated after 13 days, read-out: damage to plant (100=total damage to plant; 0=no damage to plant)
Summary of the method: (§1)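 Damage rated on a 0–100 scale (100 = total) 13 days after spraying in glasshouse conditions of 24/18° C., 15 h light, 50% humidity. Spray applied one day after sowing, using aqueous dilution in 0.2% Genapol XO80 of a 50 g/l IF50 solvent-emulsifier formulation, at the desired final dose.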

LOLPE [2] = experiment: Pre-emergence biological efficacy; details: Lolium perenne, 312 h, evaluated after 13 days, read-out: damage to plant (100=total damage to plant; 0=no damage to plant)
Summary of the method: as §1

IPOHE [3] = experiment: Pre-emergence biological efficacy; details: Ipomoea hederacea, 312 h, evaluated after 13 days, read-out: damage to plant (100=total damage to plant; 0=no damage to plant)
Summary of the method: as §1

AMAPA [4] = experiment: Pre-emergence biological efficacy; details: Amaranthus palmeri, 312 h, evaluated after 13 days, read-out: damage to plant (100=total damage to plant; 0=no damage to plant)
Summary of the method: as §1

ECHCG [5] = experiment: Pre-emergence biological efficacy; details: Echinochloa crus-galli, 312 h, evaluated after 13 days, read-out: damage to plant (100=total damage to plant; 0=no damage to plant)
Summary of the method: as §1

SETFA [6] = experiment: Pre-emergence biological efficacy; details: Setaria faberi, 312 h, evaluated after 13 days, read-out: damage to plant (100=total damage to plant; 0=no damage to plant)
Summary of the method: as §1

ELEIN = experiment: Post-emergence biological efficacy; details: 312 h, evaluated after 13 days, read-out: damage to plant (100=total damage to plant; 0=no damage to plant)
Summary of the method: (§2)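 Pot-grown plants were raised 14 days in a glasshouse (24/19 °C day/night, 16 h light), then sprayed post-emergence with an aqueous dilution of a 50 g/l IF50 formulation stock in 0.2% Genapol XO80. They were kept at 24/18 °C, 15 h light, 50% humidity, and visually scored for damage after 13 days (0 = none, 100 = total).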

EPHHL [7] = experiment: Post-emergence biological efficacy; details: Euphorbia heterophylla, 312 h, evaluated after 13 days, read-out: damage to plant (100=total damage to plant; 0=no damage to plant)
Summary of the method: as §2

LOLPE [8] = experiment: Post-emergence biological efficacy; details: Lolium perenne, 312 h, evaluated after 13 days, read-out: damage to plant (100=total damage to plant; 0=no damage to plant)
Summary of the method: as §2

IPOHE [9] = experiment: Post-emergence biological efficacy; details: Ipomoea hederacea, 312 h, evaluated after 13 days, read-out: damage to plant (100=total damage to plant; 0=no damage to plant)
Summary of the method: as §2

AMAPA [10] = experiment: Post-emergence biological efficacy; details: Amaranthus palmeri, 312 h, evaluated after 13 days, read-out: damage to plant (100=total damage to plant; 0=no damage to plant)
Summary of the method: as §2

ECHCG [11] = experiment: Post-emergence biological efficacy; details: Echinochloa crus-galli, 312 h, evaluated after 13 days, read-out: damage to plant (100=total damage to plant; 0=no damage to plant)
Summary of the method: as §2

SETFA [12] = experiment: Post-emergence biological efficacy; details: Setaria faberi, 312 h, evaluated after 13 days, read-out: damage to plant (100=total damage to plant; 0=no damage to plant)
Summary of the method: as §2

CHEAL = experiment: Post-emergence biological efficacy; details: Chenopodium album, 312 h, evaluated after 13 days, read-out: damage to plant (100=total damage to plant; 0=no damage to plant)
Summary of the method: as §2

DIGSA = experiment: Post-emergence biological efficacy; details: Digitaria sanguinalis, 312 h, evaluated after 13 days, read-out: damage to plant (100=total damage to plant; 0=no damage to plant)
Summary of the method: as §2

Row | Structure (SMILES) | pest or weed control at 250 g/ha (EPHHL [1]) [%] | pest or weed control at 250 g/ha (LOLPE [2]) [%] | pest or weed control at 250 g/ha (IPOHE [3]) [%] | pest or weed control at 250 g/ha (AMAPA [4]) [%] | pest or weed control at 250 g/ha (ECHCG [5]) [%] | pest or weed control at 250 g/ha (SETFA [6]) [%] | pest or weed control at 250 g/ha (ELEIN) [%] | pest or weed control at 250 g/ha (EPHHL [7]) [%] | pest or weed control at 250 g/ha (LOLPE [8]) [%] | pest or weed control at 250 g/ha (IPOHE [9]) [%] | pest or weed control at 250 g/ha (AMAPA [10]) [%] | pest or weed control at 250 g/ha (ECHCG [11]) [%] | pest or weed control at 250 g/ha (SETFA [12]) [%] | pest or weed control at 250 g/ha (CHEAL) [%] | pest or weed control at 250 g/ha (DIGSA) [%]
1 | CCOC(=O)C1(C)CC(c2cc(-c3cc(C(F)(F)F)ccn3)c(F)cc2Cl)=NO1 (stereo not drawn) [Compound 1-319, Ethyl 3-[2-chloro-4-fluoro-5-[4-(trifluoromethyl)-2-pyridyl]-phenyl]-5-methyl-4H-isoxazole-5-carboxylate] | 20 | 10 | 0 | 40 | 30 | 0 | 40 | 80 | 10 | 100 | 80 | 60 | 70 | 90 | 80
2 | CCOC(=O)C1(C)CC(c2cc(-c3ncc(F)cc3Cl)c(F)cc2Cl)=NO1 (stereo not drawn) [Compound 1-331, Ethyl 3-[2-chloro-5-(3-chloro-5-fluoro-2-pyridyl)-4-fluoro-phenyl]-5-methyl-4H-isoxazole-5-carboxylate] | 100 | 80 | 60 | 100 | 90 | 100 | 100 | 100 | 100 | 100 | 100 | 100 | 100 | 100 | 100
3 | CCOC(=O)C1(C)CC(c2cc(-c3ncc(Cl)cc3C(F)(F)F)c(F)cc2Cl)=NO1 (stereo not drawn) [Compound 1-343, Ethyl 3-[2-chloro-5-[5-chloro-3-(trifluoromethyl)-2-pyridyl]-4-fluoro-phenyl]-5-methyl-4H-isoxazole-5-carboxylate] | 50 | 20 | 60 | 70 | 30 | 50 | 100 | 100 | 60 | 100 | 100 | 80 | 100 | 100 | 100
4 | CCOC(=O)C1(C)CC(c2cc(-c3ncc([N+](=O)[O-])cc3Cl)c(F)cc2Cl)=NO1 (stereo not drawn) [Compound 1-355, Ethyl 3-[2-chloro-5-(3-chloro-5-nitro-2-pyridyl)-4-fluoro-phenyl]-5-methyl-4H-isoxazole-5-carboxylate] | 20 | 20 | 20 | 0 | 10 | 10 | 50 | 80 | 50 | 70 | 100 | 50 | 40 | 60 | 50
5 | CCOC(=O)C1(C)CC(c2cc(-c3cc(C)cc(F)n3)c(F)cc2Cl)=NO1 (stereo not drawn) [Compound 1-367, Ethyl 3-[2-chloro-4-fluoro-5-(6-fluoro-4-methyl-2-pyridyl)-phenyl]-5-methyl-4H-isoxazole-5-carboxylate] | 0 | 0 | 0 | 0 | 0 | 0 | 20 | 30 | 0 | 40 | 0 | 40 | 40 | 20 | 50

— US20240124432A1, “HERBICIDAL COMPOUNDS” (SYNGENTA CROP PROTECTION AG, priority 2020, published 2024)
